Reference: the NIST ThermoML archive (doi:10.1016/j.jct.2018.12.019)
Numbers after ± are expanded uncertainties.

Assay: xn = mol fraction of the nth substance listed
Conditions: 98 kPa, Liquid; for speed of sound: Frequency=3 MHz, Single path-length method; for mass density: Vibrating tube method

Cn1ccnc1 [1-methylimidazole] + CO
Conditions	mass density, 288.15 K [kg/m3]	mass density, 298.15 K [kg/m3]	mass density, 308.15 K [kg/m3]	mass density, 318.15 K [kg/m3]	mass density, 328.15 K [kg/m3]	speed of sound, 288.15 K [m/s]	speed of sound, 298.15 K [m/s]	speed of sound, 308.15 K [m/s]	speed of sound, 318.15 K [m/s]	speed of sound, 328.15 K [m/s]
x1 = 0.0507	822.81 ± 0.82	813.46 ± 0.82	804.03 ± 0.82	794.49 ± 0.82	784.81 ± 0.82	1185.2 ± 1.1	1151.8 ± 1.1	1118.6 ± 1.1	1085.8 ± 1.1	1053.3 ± 1.1
x1 = 0.1009	846.62 ± 0.81	837.31 ± 0.81	827.92 ± 0.81	818.41 ± 0.81	808.78 ± 0.82	1230.7 ± 1.2	1196.9 ± 1.2	1163.2 ± 1.2	1130 ± 1.2	1097.2 ± 1.2
x1 = 0.1961	884.53 ± 0.81	875.26 ± 0.81	865.91 ± 0.81	856.48 ± 0.81	846.92 ± 0.81	1305.4 ± 1.2	1270.8 ± 1.2	1236.4 ± 1.2	1202.4 ± 1.2	1168.7 ± 1.2
x1 = 0.296	918.09 ± 0.81	908.87 ± 0.81	899.58 ± 0.81	890.21 ± 0.81	880.75 ± 0.81	1374 ± 1.2	1338.8 ± 1.2	1303.7 ± 1.2	1268.9 ± 1.2	1234.5 ± 1.2
x1 = 0.3988	946.5 ± 0.81	937.33 ± 0.81	928.11 ± 0.81	918.82 ± 0.81	909.45 ± 0.81	1434.1 ± 1.2	1398.4 ± 1.2	1362.7 ± 1.2	1327.4 ± 1.2	1292.4 ± 1.2
x1 = 0.5058	969.95 ± 0.81	960.86 ± 0.81	951.71 ± 0.81	942.51 ± 0.81	933.23 ± 0.81	1484.7 ± 1.3	1448.5 ± 1.3	1412.4 ± 1.3	1376.6 ± 1.3	1341.1 ± 1.3
x1 = 0.6096	989.14 ± 0.81	980.11 ± 0.81	971.04 ± 0.81	961.92 ± 0.81	952.74 ± 0.82	1526.2 ± 1.3	1489.6 ± 1.3	1453 ± 1.3	1416.8 ± 1.3	1380.9 ± 1.3
x1 = 0.7023	1003.69 ± 0.82	994.72 ± 0.82	985.72 ± 0.82	976.66 ± 0.82	967.55 ± 0.82	1558 ± 1.3	1521.2 ± 1.3	1484.3 ± 1.3	1447.8 ± 1.3	1411.7 ± 1.3
x1 = 0.8018	1017.21 ± 0.82	1008.3 ± 0.82	999.35 ± 0.82	990.36 ± 0.82	981.32 ± 0.82	1587.5 ± 1.4	1550.4 ± 1.4	1513.3 ± 1.4	1476.5 ± 1.4	1440.5 ± 1.4
x1 = 0.8994	1028.89 ± 0.83	1020.02 ± 0.83	1011.12 ± 0.82	1002.18 ± 0.82	993.19 ± 0.82	1612.9 ± 1.4	1575.6 ± 1.4	1538.2 ± 1.4	1501.2 ± 1.4	1464.5 ± 1.4
x1 = 0.951	1034.48 ± 0.83	1025.61 ± 0.83	1016.76 ± 0.83	1007.87 ± 0.83	998.91 ± 0.83	1625 ± 1.4	1587.6 ± 1.4	1550.1 ± 1.4	1513 ± 1.4	1476.2 ± 1.4
x1 = 1	1039.36 ± 0.83	1030.52 ± 0.83	1021.66 ± 0.83	1012.76 ± 0.83	1003.83 ± 0.83	1634.1 ± 1.4	1596.5 ± 1.4	1559 ± 1.4	1521.8 ± 1.4	1485 ± 1.4
